Experiments:
Type in all cases: ADME, organism-based
[1] = Tmax in Homo sapiens (human) at 150 mg; conditions: in vivo
[2] = system: Rhesus monkey; experiment: Dose normalized AUC in Macaca mulatta (Rhesus monkey) at 50 mg/kg, po; design: dose 50 mg/kg, route oral; conditions: in vivo
[3] = Volume of distribution in Rattus norvegicus Sprague-Dawley (rat) at 2 mg/kg, iv; design: dose 2 mg/kg, route intravenous; conditions: in vivo
[4] = system: Rattus norvegicus; experiment: Dose normalized AUC in Rattus norvegicus Sprague-Dawley (rat) at 2 mg/kg, iv; design: dose 2 mg/kg, route intravenous; conditions: in vivo
[5] = Elimination half life in Rattus norvegicus Sprague-Dawley (rat) at 30 mg/kg, administered intramuscularly; design: dose 30 mg/kg, route intramuscular; conditions: in vivo, im, read-out: beta t1/2 (converted)
[6] = Elimination half life in Rattus norvegicus Sprague-Dawley (rat) at 9 mg/kg, administered intramuscularly; design: dose 9 mg/kg, route intramuscular; conditions: in vivo, im, read-out: beta t1/2 (converted)
[7] = Tmax in Rattus norvegicus Sprague-Dawley (rat) at 9 mg/kg, po; design: dose 9 mg/kg, route oral; conditions: in vivo
[8] = Mean residence time in Rattus norvegicus Sprague-Dawley (rat) at 30 mg/kg, administered intramuscularly; design: dose 30 mg/kg, route intramuscular; conditions: in vivo, im
[9] = Tmax in Rattus norvegicus Sprague-Dawley (rat) at 30 mg/kg, administered intramuscularly; design: dose 30 mg/kg, route intramuscular; conditions: in vivo, im
[10] = system: Rattus norvegicus; experiment: Dose normalized AUC in Rattus norvegicus Sprague-Dawley (rat) at 9 mg/kg, administered intramuscularly; design: dose 9 mg/kg, route intramuscular; conditions: in vivo, im
[11] = Cmax in Homo sapiens (human) at 150 mg; design: dose 150 mg; conditions: in vivo
[12] = Cmax in Rattus norvegicus Sprague-Dawley (rat) at 9 mg/kg, po; design: dose 9 mg/kg, route oral; conditions: in vivo
[13] = species: Homo sapiens; experiment: Dose normalized AUC in Homo sapiens (human) at 150 mg; conditions: in vivo
[14] = Mean residence time in Rattus norvegicus Sprague-Dawley (rat) at 2 mg/kg, iv; design: dose 2 mg/kg, route intravenous; conditions: in vivo
[15] = system: Rhesus monkey; experiment: Dose normalized AUC in Macaca mulatta (Rhesus monkey) at 7.5 mg/kg, administered intramuscularly; design: dose 7.5 mg/kg, route intramuscular; conditions: in vivo, im
[16] = Elimination half life in Macaca mulatta (Rhesus monkey) at 50 mg/kg, po; design: dose 50 mg/kg, route oral; conditions: in vivo, read-out: beta t1/2 (converted)
[17] = Elimination half life in Rattus norvegicus Sprague-Dawley (rat) at 17.5 mg/kg, po; design: dose 17.5 mg/kg, route oral; conditions: in vivo, read-out: beta t1/2 (converted)
[18] = Mean residence time in Homo sapiens (human) at 150 mg; conditions: in vivo
[19] = Cmax in Macaca mulatta (Rhesus monkey) at 50 mg/kg, po; design: dose 50 mg/kg, route oral; conditions: in vivo
[20] = Elimination half life in Rattus norvegicus Sprague-Dawley (rat) at 2 mg/kg, iv; design: dose 2 mg/kg, route intravenous; conditions: in vivo, read-out: beta t1/2 (converted)
[21] = Cmax in Rattus norvegicus Sprague-Dawley (rat) at 17.5 mg/kg, administered intramuscularly; design: dose 17.5 mg/kg, route intramuscular; conditions: in vivo, im
[22] = Elimination half life in Macaca mulatta (Rhesus monkey) at 4 mg/kg, iv; design: dose 4 mg/kg, route intravenous; conditions: in vivo, read-out: beta t1/2 (converted)
[23] = system: Rattus norvegicus; experiment: Dose normalized AUC in Rattus norvegicus Sprague-Dawley (rat) at 17.5 mg/kg, administered intramuscularly; design: dose 17.5 mg/kg, route intramuscular; conditions: in vivo, im
[24] = Tmax in Rattus norvegicus Sprague-Dawley (rat) at 9 mg/kg, administered intramuscularly; design: dose 9 mg/kg, route intramuscular; conditions: in vivo, im
[25] = system: Rattus norvegicus; experiment: Volume of distribution in Rattus norvegicus Sprague-Dawley (rat) at 30 mg/kg, po; design: dose 30 mg/kg, route oral; conditions: in vivo
[26] = Elimination half life in Homo sapiens (human) at 150 mg; conditions: in vivo, read-out: beta t1/2 (converted)
[27] = Elimination half life in Macaca mulatta (Rhesus monkey) at 7.5 mg/kg, administered intramuscularly; design: dose 7.5 mg/kg, route intramuscular; conditions: in vivo, im, read-out: beta t1/2 (converted)
[28] = system: Rattus norvegicus; experiment: Volume of distribution in Rattus norvegicus Sprague-Dawley (rat) at 9 mg/kg, po; design: dose 9 mg/kg, route oral; conditions: in vivo
[29] = system: Rhesus monkey; experiment: Dose normalized AUC in Macaca mulatta (Rhesus monkey) at 4 mg/kg, iv; design: dose 4 mg/kg, route intravenous; conditions: in vivo
[30] = system: Rattus norvegicus; experiment: Volume of distribution in Rattus norvegicus Sprague-Dawley (rat) at 17.5 mg/kg, po; design: dose 17.5 mg/kg, route oral; conditions: in vivo
[31] = system: Rattus norvegicus; experiment: Dose normalized AUC in Rattus norvegicus Sprague-Dawley (rat) at 9 mg/kg, po; design: dose 9 mg/kg, route oral; conditions: in vivo
[32] = Mean residence time in Macaca mulatta (Rhesus monkey) at 50 mg/kg, po; design: dose 50 mg/kg, route oral; conditions: in vivo
[33] = Cmax in Rattus norvegicus Sprague-Dawley (rat) at 30 mg/kg, administered intramuscularly; design: dose 30 mg/kg, route intramuscular; conditions: in vivo, im
[34] = Mean residence time in Rattus norvegicus Sprague-Dawley (rat) at 17.5 mg/kg, administered intramuscularly; design: dose 17.5 mg/kg, route intramuscular; conditions: in vivo, im
[35] = Cmax in Rattus norvegicus Sprague-Dawley (rat) at 30 mg/kg, po; design: dose 30 mg/kg, route oral; conditions: in vivo
[36] = Volume of distribution in Homo sapiens (human) at 150 mg; conditions: in vivo
[37] = Mean residence time in Rattus norvegicus Sprague-Dawley (rat) at 9 mg/kg, administered intramuscularly; design: dose 9 mg/kg, route intramuscular; conditions: in vivo, im
[38] = Mean residence time in Rattus norvegicus Sprague-Dawley (rat) at 9 mg/kg, po; design: dose 9 mg/kg, route oral; conditions: in vivo
[39] = system: Rattus norvegicus; experiment: Volume of distribution in Rattus norvegicus Sprague-Dawley (rat) at 30 mg/kg, administered intramuscularly; design: dose 30 mg/kg, route intramuscular; conditions: in vivo, im
[40] = Mean residence time in Rattus norvegicus Sprague-Dawley (rat) at 30 mg/kg, po; design: dose 30 mg/kg, route oral; conditions: in vivo
[41] = Cmax in Rattus norvegicus Sprague-Dawley (rat) at 9 mg/kg, administered intramuscularly; design: dose 9 mg/kg, route intramuscular; conditions: in vivo, im
[42] = system: Rattus norvegicus; experiment: Volume of distribution in Rattus norvegicus Sprague-Dawley (rat) at 17.5 mg/kg, administered intramuscularly; design: dose 17.5 mg/kg, route intramuscular; conditions: in vivo, im
[43] = system: Rattus norvegicus; experiment: Dose normalized AUC in Rattus norvegicus Sprague-Dawley (rat) at 30 mg/kg, administered intramuscularly; design: dose 30 mg/kg, route intramuscular; conditions: in vivo, im
[44] = Cmax in Rattus norvegicus Sprague-Dawley (rat) at 17.5 mg/kg, po; design: dose 17.5 mg/kg, route oral; conditions: in vivo
[45] = Mean residence time in Macaca mulatta (Rhesus monkey) at 7.5 mg/kg, administered intramuscularly; design: dose 7.5 mg/kg, route intramuscular; conditions: in vivo, im
[46] = system: Rhesus monkey; experiment: Volume of distribution in Macaca mulatta (Rhesus monkey) at 7.5 mg/kg, administered intramuscularly; design: dose 7.5 mg/kg, route intramuscular; conditions: in vivo, im
[47] = Tmax in Macaca mulatta (Rhesus monkey) at 7.5 mg/kg, administered intramuscularly; design: dose 7.5 mg/kg, route intramuscular; conditions: in vivo, im
[48] = AUC (0 to infinity) in Homo sapiens (human) at 150 mg; design: dose 150 mg, time infinity; conditions: plasma
[49] = Tmax in Macaca mulatta (Rhesus monkey) at 50 mg/kg, po; design: dose 50 mg/kg, route oral; conditions: in vivo
[50] = Cmax in Macaca mulatta (Rhesus monkey) at 7.5 mg/kg, administered intramuscularly; design: dose 7.5 mg/kg, route intramuscular; conditions: in vivo, im
[51] = Volume of distribution in Macaca mulatta (Rhesus monkey) at 4 mg/kg, iv; design: dose 4 mg/kg, route intravenous; conditions: in vivo
[52] = Elimination half life in Rattus norvegicus Sprague-Dawley (rat) at 30 mg/kg, po; design: dose 30 mg/kg, route oral; conditions: in vivo, read-out: beta t1/2 (converted)
[53] = Elimination half life in Rattus norvegicus Sprague-Dawley (rat) at 9 mg/kg, po; design: dose 9 mg/kg, route oral; conditions: in vivo, read-out: beta t1/2 (converted)
[54] = Mean residence time in Macaca mulatta (Rhesus monkey) at 4 mg/kg, iv; design: dose 4 mg/kg, route intravenous; conditions: in vivo
[55] = system: Rattus norvegicus; experiment: Dose normalized AUC in Rattus norvegicus Sprague-Dawley (rat) at 30 mg/kg, po; design: dose 30 mg/kg, route oral; conditions: in vivo
[56] = Tmax in Rattus norvegicus Sprague-Dawley (rat) at 17.5 mg/kg, po; design: dose 17.5 mg/kg, route oral; conditions: in vivo
[57] = Elimination half life in Rattus norvegicus Sprague-Dawley (rat) at 17.5 mg/kg, administered intramuscularly; design: dose 17.5 mg/kg, route intramuscular; conditions: in vivo, im, read-out: beta t1/2 (converted)
[58] = system: Rattus norvegicus; experiment: Volume of distribution in Rattus norvegicus Sprague-Dawley (rat) at 9 mg/kg, administered intramuscularly; design: dose 9 mg/kg, route intramuscular; conditions: in vivo, im
[59] = Clearance in Homo sapiens (human) at 150 mg; conditions: in vivo

CCO[C@@H]1O[C@@H]2O[C@]3(C)CC[C@H]4[C@H](C)CC[C@@H]([C@H]1C)[C@@]24OO3 [ALPHA-ARTEETHER] gave a Tmax [1] of 4.8 min, an AUC/dose [2] of 0.4 ng·h/mL and a Vd [3] of 3.6 L/kg. For the same compound, the AUC/dose [4] was 219.5 ng·h/mL, the half-life [5] was 11.9 h and the half-life [6] was 22 h. For the same compound, the Tmax [7] was 5 min, the MRT [8] was 14.4 h and the Tmax [9] was 0.167 h. It also gave an AUC/dose [10] of 392 ng·h/mL, a Cmax [11] of 60.7 ng/mL and a Cmax [12] of 33.4 ng/mL. For the same compound, the AUC/dose [13] was 1721.9 ng·h/mL, the MRT [14] was 0.6 h and the AUC/dose [15] was 285.3 ng·h/mL. The half-life [16] was 2.7 h, the half-life [17] was 1.7 h and the MRT [18] was 19.6 h. For the same compound, the Cmax [19] was 3.9 ng/mL, the half-life [20] was 0.55 h and the Cmax [21] was 184 ng/mL. The half-life [22] was 1.8 h, the AUC/dose [23] was 237.5 ng·h/mL and the Tmax [24] was 0.5 h. For the same compound, the Vd [25] was 176.5 L/kg, the half-life [26] was 13.2 h and the half-life [27] was 6.7 h. The Vd [28] was 122.2 L/kg, the AUC/dose [29] was 628.7 ng·h/mL and the Vd [30] was 244.3 L/kg. It also gave an AUC/dose [31] of 27.3 ng·h/mL, an MRT [32] of 3.4 h and a Cmax [33] of 93.3 ng/mL. It also gave an MRT [34] of 23.5 h, a Cmax [35] of 103 ng/mL and a Vd [36] of 12 L/kg. It also gave an MRT [37] of 47.8 h, an MRT [38] of 4.3 h and a Vd [39] of 253.3 L/kg. The MRT [40] was 1.8 h, the Cmax [41] was 52.3 ng/mL and the Vd [42] was 129.3 L/kg. The AUC/dose [43] was 66.8 ng·h/mL, the Cmax [44] was 37.6 ng/mL and the MRT [45] was 9.2 h. It also gave a Vd [46] of 36.8 L/kg, a Tmax [47] of 1 h and an AUC(0-inf) [48] of 1300 ng·h/mL. It also gave a Tmax [49] of 0.222 h, a Cmax [50] of 96.7 ng/mL and a Vd [51] of 4.1 L/kg. For the same compound, the half-life [52] was 1.5 h, the half-life [53] was 2.4 h and the MRT [54] was 2 h. The AUC/dose [55] was 12.4 ng·h/mL, the Tmax [56] was 5 min and the half-life [57] was 21.7 h. For the same compound, the Vd [58] was 76.8 L/kg and the clearance [59] was 10 mL/min/kg.

Source: ChEMBL document CHEMBL3045862, “PRE-CLINICAL AND CLINICAL PHARMACOKINETICS OF THE DIASTEREOMERS OF ARTEETHER, A POTENT ANTIMALARIAL” (Med Chem Res, 2004)
